According to EP0462621A2, “Use of particular compounds for manufacture of pharmaceutical formulations for treatment against various parasites, mycoplasmas, other indications and other infections” (Prendergast, Patrick Thomas, priority 1990, dated 1991):

Assays:
L major/L mexicana [1] = test: Amastigotes (AM) in cell lines, in-vitro; type: cell-based; conditions: Lm., Amastigote; further: key: - no/poor activity,; + fair/moderate activity,; ++ good/excellent activity
Text: (§1) Amastigotes of Leishmania can be cultivated in a wide range of mammalian cells, some of which may be used in in-vitro screens. These include (1) a Sticker dog sarcoma (fibroblast) cell line, (2) transformed rodent macrophage cell lines, (3) primary isolated mouse peritoneal macrophages (MP mo), and (4) human monocyte-derived macrophages (HM mo). The methods are similar for all models. Amastigote or promastigote infected cells are maintained in a medium containing the drug for 4-7 days, at 37 C for L. donovani and 33-35 C for L. major and L. mexicana. Drug activity is then assessed by counting (I) the number of infected host cells and/or (II) the number of amastigotes/100 host cells.
(§2) In-vitro and in-vivo models were used to test activities of a selection of many compounds. Those activities are summarized in Tables 1-3, showing variation between systems and species. Activities measured in the MP mo and HM mo models have shown the best correlation with results obtained in hamster and mouse models.

L donovani [2] = test: Amastigotes (AM) in cell lines, in-vitro; type: cell-based; conditions: Ld., Amastigote; further: key: - no/poor activity,; + fair/moderate activity,; ++ good/excellent activity
Text: as §1, §2

[3] = system: herpes simplex type 1 (HSV-1); test: M413 cells, HSV-1; type: cell-based; conditions: M413 cell line of human fibroblasts
Experimental: A procedure similar to that described for Experiment la(g) was followed except herpes simplex virus- type I (HSV-I) was used.
The experiments were performed in duplicate M413 cells which were set up in Titer-Tek slides (4 well, glass) and those that were confluent within one day were used in experiments. Within 24-48 hours, cell densities were checked to ensure sufficiency to proceed with infection. Stock HSV-1 was serially diluted in 10-fold steps (1, 10^-1, 10-^2, 10-^3, 10-^4) to provide 2 ml of each dilution: 0.2/1.8 ml diluent to finally yield overall dilutions of approximately 10^-1, 10^-2, 10-^3, 10^-4, 10-^5. Virus absorption was allowed for 90 minutes at 37 °C, after which time the inoculum was removed and replaced with solutions containing IPA at the concentrations as indicated in Table la(j). The slide was incubated for 3 days and stained with the following antisera: monoclonal antibody (MAB) to HSV-1 virus capsid antigen (VCA) at 1:20; control mores IgG at 1:20.

HIV = HIV production from H9 cells persistently infected with HIV, RT activity; type: cell-based
Experimental: To examine the effect of IPA on the production of HIV-1 in H9 cells persistently infected with HIV-1, 5x10^6 HIV-1-infected H9 cells were incubated in the absence or presence of IPA. Every 4-5 days, two thirds of the total cells were removed and medium was changed. New medium with or without drug was added to bring up to the original volume. At days indicated, culture supernatant was withdrawn and tested for the production of HIV-1 by the RT activity. A 20,000 cpm or more TCA insoluble radioactivity per millilitre of supernatant was considered positive in the RT assay. Results

[4] = system: T.b. brucei, T.b. gambiense and T.b. rhodesiense; test: Procyclic trypomastigote (TRY) in-vitro screen; type: cell-based; further: key: - no/poor activity,; + fair/moderate activity,; ++ good/excellent activity
Experimental: (§3) Primary screening for new trypanocides has made extensive use of rodent systems, in which host survival time is a simple indicator of drug activity. In-vitro screens have used a variety of trypomastigote types (see Table 3, below). […] Most early in-vitro screens employed a short test in which bloodstream trypomastigotes were isolated from an infected rodent and maintained for up to 24 h in a simple drug-containing media. Two significant modifications of this technique include maintaining isolated bloodstream trypomastigotes in drug-containing media for 3-4 hours at 37° C in micro-titre plates and their subsequent viability assessed by the uptake of radiolabelled precursors or motility and infectivity to mice.
as §2

L major/L mexicana [5] = test: Leishmania promastigote (PRO) in-vitro screen; type: cell-based; conditions: Lm.
Text: (§4) Following initial infection, the amastigote is the only form present in the mammalian host, surviving and dividing in various macrophage populations. Differences between the promastigote and amastigote in form and habitat are not matched by known biochemical dissimilarities. However, the drug susceptibility of the cultured promastigote, used in many early chemotherapy screens, contrasts markedly with that of the amastigote (see Table 1, below), most importantly to the clinically used pentavalent antimonials - sodium stibogluconate (Pentostam) and meglumine antimoniate (Glucantime).
as §1, §2

L donovani [6] = test: Leishmania promastigote (PRO) in-vitro screen; type: cell-based; conditions: Ld.
Text: as §4, §1, §2

T. cruzi [7] = test: T. cruzi intracellular amastigote (AM) in-vitro screen; type: cell-based
Experimental: Dividing populations can be cultivated in muscle cells, fibroblasts and macrophages, following infection with trypomastigotes. After the initial infection, there is normally a period of 4-5 days during which the amastigotes divide before transforming, via the epimastigote stage, back to trypomastigotes which escape from the cell. Drug activity is measured during this 4-5 day period. A dividing host cell population, low infection rate, and the presence of trypomastigotes in the overlay can complicate the interpretation of results.
Intracellular amastigote models can use a range of muscle (skeletal and cardiac) and fibroblast (e.g. HeLa, HePa) cell lines, macrophages, and chick embryo cells. […] To overcome the problems of overgrowth of the monolayer and a low percentage of infected cells, often associated with the use of cell lines, irradiated rat L6 myoblasts are used.

[8] = Solubility of IPA in water; type: physicochemical
Epstern-Barr Virus (EBV) = test: P3HR1 cells, EBV, immunofluorescence; type: cell-based; conditions: P3HR1 cells in-vitro
Experimental: Experiments were carried out using concentrated P3HR1 […]. […] Infection of Raji cells by infectious EBV induces early antigens (EA) in the cells in proportion to the titer of infectious virus. EA was detected using a monoclonal antibody.
The assay was set up with Raji cells exposed for 2 hours to serial 10 fold dilutions of the P3HR1 virus. Excess virus was separated by centrifugation and removed. Aliquots of cells infected at each dilution were distributed into 12 well trays (0.5 ml/well), and 0.5 ml of medium containing twice the desired final medium concentration was added to each well.
At 24 and 72 hours, aliquots of each well were washed, added to Teflon® outlined wells on a glass slide, air dried to attach then to the glass, and then fixed with acetone-methanol (50:50). Standard immunofluorescence procedures were followed to quantify the percent of cells containing virus at each time, virus dilution and drug concentration.

[9] = system: T.b. brucei, T.b. gambiense and T.b. rhodesiense; test: Isolated bloodstream trypomastigote (TRY) in-vitro screen; type: cell-based
Experimental: as §3
In-vitro studies on isolated bloodstream trypomastigotes were also used in the rational biochemical approaches towards the chemotherapy of T. brucei infections involving inhibitors of carbohydrate catabolism salicyl hydroxamic acid plus glycerol), of polyamine synthesis (methylgyoxal bis-guanylhydrazone and - DFMO), and of surface coat glycoprotein synthesis (Tunicamycin). In these studies, activity of the compounds are shown in-vitro and in-vivo, whereas the sensitivity of isolated bloodstream trypomastigotes to toxic oxygen radicals generated by naphthoquinones was not shown by the parasites in mice. The activity of the standard anti-trypanosomals-melarsoprol, pentamidine and suramin and tested compounds according to the present invention in in-vitro systems is shown in Table 3.
as §2

L major/L mexicana [10] = test: Amastigote-promastigote (AM-PRO) transformation, in-vitro; type: cell-based; conditions: Lm.
T. cruzi [11] = test: T. cruzi mouse model, in-vivo
Text: as §2

HIV-I = test: Experiment la(a): macrophage cells, HIV-I, p24 antigen capture radio-immunoassay; type: cell-based; conditions: Human immunodeficiency virus 1, Monocyte; Monocytes; HIV-1; as read from Figure 15

## CC(C)=CCNc1ncnc2c1ncn2[C@@H]1O[C@H](CO)[C@@H](O)[C@H]1O [IPA, N^6-(Δ^2-isopentenyl) adenosine]
L major/L mexicana [1]
  Activity, AM in cell lines: +
L donovani [2]
  Activity, AM in cell lines: -
[3]
  in-vitro levels of herpes simplex type 1 (HSV-1): reduces
HIV; DRUG CONCENTRATION 3.75 (unit not given), 15 DAYS p.d., without drug 3 x 10^5
  HIV PRODUCTION RT ACTIVITY cpm/ml: 2.3 x 10^5 cpm/ml
HIV; DRUG CONCENTRATION 3.75 (unit not given), 25 DAYS p.d., without drug 1.1 x 10^6
  HIV PRODUCTION RT ACTIVITY cpm/ml: 1.2 x 10^5 cpm/ml
HIV; DRUG CONCENTRATION 7.5 (unit not given), 15 DAYS p.d., without drug 3 x 10^5
  HIV PRODUCTION RT ACTIVITY cpm/ml: 2.9 x 10^5 cpm/ml
HIV; DRUG CONCENTRATION 7.5 (unit not given), 25 DAYS p.d., without drug 1.1 x 10^6
  HIV PRODUCTION RT ACTIVITY cpm/ml: 3.2 x 10^5 cpm/ml
HIV; DRUG CONCENTRATION 15 (unit not given), 15 DAYS p.d., without drug 3 x 10^5
  HIV PRODUCTION RT ACTIVITY cpm/ml: 2.3 x 10^5 cpm/ml
HIV; DRUG CONCENTRATION 15 (unit not given), 25 DAYS p.d., without drug 1.1 x 10^6
  HIV PRODUCTION RT ACTIVITY cpm/ml: 3.6 x 10^5 cpm/ml
HIV; DRUG CONCENTRATION 30 (unit not given), 15 DAYS p.d., without drug 3 x 10^5
  HIV PRODUCTION RT ACTIVITY cpm/ml: 2.9 x 10^5 cpm/ml
HIV; DRUG CONCENTRATION 30 (unit not given), 25 DAYS p.d., without drug 1.1 x 10^6
  HIV PRODUCTION RT ACTIVITY cpm/ml: 2.5 x 10^5 cpm/ml
[4]
  activity, procyclic TRY: +
L major/L mexicana [5]
  Activity, PRO: +
L donovani [6]
  Activity, PRO: + +
T. cruzi [7]; T. cruzi strain Sonya
  activity, intracellular AM: ++(Y,Sonya)
T. cruzi [7]; T. cruzi strain Y
  activity, intracellular AM: ++(Y,Sonya)
[8]
  solubility in water: does not readily dissolve in water
Epstern-Barr Virus (EBV)
  levels of Epstern-Barr Virus (EBV): reduces
[9]
  activity, isolated bloodstream TRY: +
L major/L mexicana [10]
  Activity, AM-PRO transform-ation: + +
T. cruzi [11]; T. cruzi strain Sonya
  activity, mouse model: +
T. cruzi [11]; T. cruzi strain Y
  activity, mouse model: ++
HIV-I
  IC50: 6 µM
  IC90: 10 µM
